Results: patent US20190218613A1, “METHODS OF DETECTING THE FORMATION OF CELLULAR CLUSTERS OF RNA” (The Regents of the University of California, priority 2017, published 2019)
Entries after “also recorded” stand apart in the source; their conditions may differ. Like-named read-outs stand apart in the source and are kept apart here.

Experiments:
47× CAG RNA = experiment: In vitro RNA phase separation/gelation assay (fluorescence micrographs, index of dispersion); type: biochemical; conditions: for 47× CAG RNA clustering in vitro: 100 mM ammonium acetate (NH4OAc); for 47× CAG RNA clustering / gel formation in vitro: doxorubicin added to pre-formed clusters (37° C., 1 hour) or pre-mixed before annealing
Experimental: For phase separation/gelation assays, RNAs were diluted to concentrations of 0.5 ng/μL to 0.5 μg/μL in 10 mM Tris pH 7.0, 10 mM MgCl2, 25 mM NaCl buffer, unless indicated otherwise. Nuclease-free buffer stocks were purchased from Ambion. RNA was denatured at 95° C. for 3 minutes and cooled down at 1-4° C. per minute to 37° C. final temperature in a thermocycler and imaged immediately. Samples were visualized using a custom spinning disk confocal microscope (Nikon Ti-Eclipse equipped with a Yokogawa CSU-X spinning disk module) using a×100, 1.49 numerical aperture oil immersion objective and an air-cooled EM-CCD (electron multiplying charge-coupled device). The extent of phase separation/gelation was quantified by the index of dispersion (σ^2/μ) of fluorescence intensity per pixel (pixel size 83 nm×83 nm). Briefly, variance in the fluorescence intensity per image was determined, and normalized to the mean fluorescence intensity in the solution phase of the RNA. For dilute solution (<10% of imaging area occupied with clusters), this parameter reports the extent of inhomogeneity in the sample. At least 20 independent imaging areas (about 1,800 μm^2 each) were analyzed for each condition to achieve a representative measure across the sample. Each datum point in the bar graphs represents one imaging area. Data shown are representative of three or more independent replicates, across two or more independent RNA preparations.
For antisense DNA-mediated repression of RNA phase separation, 47×CAG RNA (200 ng/μL or 2.4 μM) was incubated with the ASO at 20 μM final concentration, followed by heat denaturation and annealing as described above. Doxorubicin was purchased from Cell Signaling Technology (catalogue number 5927). For in vitro experiments, doxorubicin was added to pre-formed RNA clusters, and samples were incubated at 37° C. for 1 hour. Alternatively, doxorubicin and RNA were pre-mixed at indicated concentrations before annealing. Similar results were obtained in both cases.

[1] = test system: 47× CAG RNA foci in U-2OS cells; experiment: Live-cell reporter assay of RNA foci (MS2CP-YFP) in U-2OS cells; type: cell-based
Experimental: (§1) A monoclonal U-20S cell line stably expressing Tet-On 3G transactivator protein (Clontech) and a tandem-dimeric MS2 hairpin binding protein tagged with enhanced YFP (MS2CP-YFP) was generated via sequential lentiviral infection and selection. This stable cell line was transduced with repeat-containing plasmids under doxycyclinetetracycline-inducible promoter. […] Cell lines were tested for mycoplasma contamination using a standard PCR kit (LookOut Mycoplasma PCR Detection Kit, Sigma) and verified routinely by live-cell DNA staining.
(§2) RNA expression was induced by adding 1,000 ng/mL doxycycline for 12-48 hours, or as indicated. Before imaging, the culture medium was replaced with DMEM with 25 mM HEPES pH 7.5 or FluoroBrite DMEM (Invitrogen) with serum and antibiotics as listed above. For long-term imaging (>2 hours), cells were placed in a live-cell imaging chamber supplemented with 5% CO2. Cells were imaged using a spinning disk confocal microscope (Nikon Ti-Eclipse equipped with a Yokogawa CSU-X spinning disk module) using a×100, 1.49 numerical aperture oil immersion objective and an air-cooled EM-CCD. For each experimental condition, at least 30 randomly chosen cells were imaged and analyzed. Each datum point in the bar graphs represents one cell. Data shown are representative of three or more independent replicates.
(§3) ATP depletion was achieved by rinsing cells twice in DMEM without glucose (Gibco), followed by incubation for 10 minutes in the ATP depletion medium (DMEM without glucose with 1% (v/v) dialyzed FBS (Gibco), 10 mM sodium azide and 6 mM 2-deoxy-D-glucose). Doxorubicin (stock, 10 mM in dimethylsulfoxide (DMSO)) was diluted to the desired concentration in cell culture medium and added to cells pre-induced with doxycycline for 24 hours. Cells were incubated with doxorubicin or an equivalent dilution of DMSO only as control, for 2 hours, and imaged as described above. Ammonium acetate (stock, 5 N) was diluted to 200 mM in cell culture medium. This intermediate dilution (2×) was added to cells pre-induced with doxycycline for 24 hours to achieve a final concentration of 100 mM of ammonium acetate. Cells were incubated in this medium for 10 minutes at 37° C. Normal cell culture medium was replaced after treatment, and cells were imaged immediately or 1 hour after medium replacement. For treatment with ASO, cells pre-induced with doxycycline for 48 hours were transfected with 100 nM final concentration of ASO using either Lipofectamine RNAiMAX (Invitrogen) or TranslT-Oligo Transfection Reagent (Mirius Bio) according to the manufacturers' recommended protocols. Similar results were obtained with both transfection reagents. Cells were imaged 12 hours after transfection.
(§4) A fluorescence-intensity and size-based threshold was used to identify RNA foci. Briefly, U-2OS cells expressing the RNA of interest together with MS2CP-YFP were imaged using a spinning disk confocal microscope, and 0.3 μm Z-stacks were acquired. […] The nuclei were manually segmented, and the mean YFP fluorescence intensity in the nucleus was manually determined. RNA foci were identified using the FIJI 3D Objects Counter plugin, with an intensity threshold as 1.6x the mean fluorescence intensity in the nucleus of the cell, and a size cut-off of more than 50 adjoining pixels (pixel size, 83 nm×83 nm). […] This method was used to determine the number, volume, surface area, and the fluorescence intensity of the foci.

nuclear speckles (SC-35) = type: cell-based
Experimental: as §3, with “Similar results were obtained with both transfection reagents.” left out
Hybridization and wash buffers were purchased from Biosearch Technologies and used according to the manufacturer's protocol. For immunofluorescence detection of proteins, methanol-fixed cells were stained using antibodies against muscleblind-like-1 (MBNL1, Abcam, ab45899), hnRNP H (Abcam, ab10374), SC-35 (Abcam, ab11826), coilin (ab87913), fibrillarin (Abcam, ab5821), PML (Abcam, ab179466), and a corresponding Alexa Fluor 647-labelled secondary antibody (Invitrogen A-21236 or Invitrogen A-21244). Samples were co-stained with an anti-green fluorescent protein (GFP) booster antibody (GBA488, Bulldog Bio) to visualize RNA foci. After labelling, samples were mounted in Prolong Gold antifade medium (Thermo Scientific) and imaged using confocal microscopy as described above.

[2] = test system: 47× CAG RNA foci in U-2OS cells; experiment: RNA FISH with probe against MS2 hairpin loops in U-2OS cells; type: cell-based
Experimental: For RNA FISH in U-2OS cells, cells expressing the desired RNA (induced for 24 hours) were fixed with 2% paraformaldehyde for 10 minutes at room temperature and permeabilized by overnight incubation in 70% ethanol at 4° C. Alternatively, cells were fixed and permeabilized by incubation for 10 minutes in methanol with 10% (v/v) acetic acid. Similar results were obtained with both fixation protocols. Fixed and permeabilized cells were either used immediately, or stored in the permeabilization medium at −20° C. until needed. RNA was detected using Cy3-labelled DNA oligonucleotides designed against the MS2-hairpin sequence.

[3] = test system: 29× GGGGCC RNA foci in U-2OS cells; experiment: Live-cell reporter assay of GGGGCC RNA foci in U-2OS cells; type: cell-based
Experimental: as §1
as §2, with “replicates. […]” for “replicates.”
as §4, with “foci.” for “foci. Briefly, U-2OS cells expressing the RNA of interest together with MS2CP-YFP were imaged using a spinning disk confocal microscope, and 0.3 μm Z-stacks were acquired.”

[4] = 2.5 μM doxorubicin for 2 hours, listed as Doxorubicin

Structure (SMILES): [Cl-].[Na+] [NaCl]
- clustering of 47× CAG RNA in presence of NaCl (47× CAG RNA; NaCl): inhibited

Structure (SMILES): CC(=O)O.N [ammonium acetate]
- 47× CAG RNA clustering in vitro (47× CAG RNA): not observed
- 47× CAG RNA clustering in vitro (47× CAG RNA; listed as NH4OAc): prevents 47× CAG RNA clustering
- 47× CAG RNA foci in cells [1]: disappearance of 47× CAG RNA foci within minutes; also recorded: disrupted
- nuclear speckles (nuclear speckles (SC-35)): disrupted
- 47× CAG RNA foci by RNA FISH ([2]; 100 mM NH4OAc): disrupted
- 29× GGGGCC RNA foci in cells ([3]; NH4OAc, same cell before and 300 s after treatment): disrupted
- 29× GGGGCC RNA foci in cells ([3]; NH4OAc, same cell before and 300 s after treatment, listed as NH4OAc): disrupting 29× GGGGCC RNA foci

Structure (SMILES): COc1cccc2c1C(=O)c1c(O)c3c(c(O)c1C2=O)C[C@@](O)(C(=O)CO)C[C@@H]3O[C@H]1C[C@H](N)[C@H](O)[C@H](C)O1 [doxorubicin]
- 47× CAG RNA clustering / gel formation in vitro (47× CAG RNA): prevents 47× CAG RNA clustering
- 47× CAG RNA clustering / gel formation in vitro (47× CAG RNA; listed as Doxorubicin): blocked the formation of CAG RNA gels in vitro; also recorded: disrupted 47× CAG RNA clustering in vitro in a dose-dependent manner
- concentration of doxorubicin needed to disrupt RNA clusters in the in vitro experiments (47× CAG RNA; in vitro): about 1 mM
- 47× CAG RNA foci in cells ([1]; 2.5 μM doxorubicin for 2 hours): specifically abrogated the 47× CAG RNA foci
- 47× CAG RNA foci in cells [1, 4]: potently dissolved the 47× CAG nuclear foci in cells
- concentration of doxorubicin required to disrupt RNA foci in cells ([1]; U-2OS cells, 47× CAG): 2.5 µM
- nuclear speckles (nuclear speckles (SC-35); 2.5 μM doxorubicin for 2 hours): not disrupted
- nuclear speckles (nuclear speckles (SC-35); [4]): without disrupting nuclear speckles
- 47× CAG RNA foci by RNA FISH ([2]; 2.5 μM doxorubicin): disrupted
- 29× GGGGCC RNA foci in cells ([3]; doxorubicin): disrupting 29× GGGGCC RNA foci; also recorded: disrupted

Structure (SMILES): CO[C@H]([C@H](O)CC(=O)[C@@H](C)[C@@H](O)CC[C@@H](C)[C@@H]1O[C@]2(CC[C@@H](C)[C@H](CC[C@H](C)C(C)=O)O2)CC[C@@H]1C)[C@H](OC(=O)C[C@@H](O)C1=C(C)C(=O)OC1=O)C(C)C [tautomycin]
- 47× CAG RNA foci in cells ([1]; 2 μM tautomycin for 4 hours): disrupts the 47× CAG RNA foci; also recorded: disrupted
- nuclear speckles (nuclear speckles (SC-35); 2 μM tautomycin for 4 hours): disruption of nuclear speckles; also recorded: disrupted
